In BindingDB's records for patent US20250313563 (The Broad Institute, 2025):
pIC50: −log10 of the molar value. Where “and” joins values, the source holds several entries; their conditions need not be identical. Equal values may be shown once.

What was measured:
[1] = molecular target: Glycogen synthase kinase-3 beta (Homo sapiens, UniProt P49841); assay: TR-FRET Assay
Outline: (§1)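 30 min preinc w/ cpd in assay buffer → kinase rxn → EDTA quench → add detection mix (40 nM SA-d2, 2 nM Tb-pSer641 Ab) → TR-FRET read.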

[2] = molecular target: Glycogen synthase kinase-3 alpha (Homo sapiens, UniProt P49840); assay: TR-FRET Assay
Outline: as §1

Glycogen synthase kinase-3 beta, sequence (P49841 whole entry): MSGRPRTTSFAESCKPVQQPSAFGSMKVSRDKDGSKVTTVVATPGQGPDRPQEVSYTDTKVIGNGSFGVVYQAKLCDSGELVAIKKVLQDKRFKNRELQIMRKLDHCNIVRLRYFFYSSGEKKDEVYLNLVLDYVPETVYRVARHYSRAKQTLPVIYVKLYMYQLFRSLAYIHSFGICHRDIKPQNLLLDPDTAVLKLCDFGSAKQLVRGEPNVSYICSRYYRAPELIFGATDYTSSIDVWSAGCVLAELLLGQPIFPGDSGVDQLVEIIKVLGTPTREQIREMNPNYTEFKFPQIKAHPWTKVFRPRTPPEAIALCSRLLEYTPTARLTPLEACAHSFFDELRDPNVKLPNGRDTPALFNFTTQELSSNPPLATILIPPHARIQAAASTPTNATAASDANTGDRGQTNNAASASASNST
Glycogen synthase kinase-3 alpha, sequence (P49840 whole entry): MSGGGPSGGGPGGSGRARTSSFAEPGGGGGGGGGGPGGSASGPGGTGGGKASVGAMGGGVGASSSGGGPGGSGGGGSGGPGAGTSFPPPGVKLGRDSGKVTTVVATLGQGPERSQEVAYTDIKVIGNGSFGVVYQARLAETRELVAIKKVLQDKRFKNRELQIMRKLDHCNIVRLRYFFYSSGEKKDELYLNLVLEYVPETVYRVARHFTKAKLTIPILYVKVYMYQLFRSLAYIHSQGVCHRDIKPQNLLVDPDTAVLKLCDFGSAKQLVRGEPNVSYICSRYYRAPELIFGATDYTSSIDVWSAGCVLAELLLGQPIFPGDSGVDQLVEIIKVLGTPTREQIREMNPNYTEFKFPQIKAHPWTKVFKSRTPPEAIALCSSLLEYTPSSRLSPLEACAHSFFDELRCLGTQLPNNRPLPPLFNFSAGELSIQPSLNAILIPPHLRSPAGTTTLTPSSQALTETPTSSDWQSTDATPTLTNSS

CC[C@]1(c2cccc(-c3c(C#N)cnn3C)c2)C2=C(CC(C)(C)NC2=O)NC2N=NC(C)=C21 (stereo partly drawn) [US20250313563, Compound 952410]
pIC50 [1]: > 7.00 and 5.30 to 6.00 | pIC50 [2]: > 7.00 and 6.00 to 7.00

CC[C@@]1(c2cccc(-c3cc(-c4ccccc4)nn3C(C)C)c2)C2=CN=NC2NC2=C1C(=O)NC(C)(C)C2 (stereo partly drawn) [US20250313563, Compound 952411]
pIC50 [1]: < 5.30 | pIC50 [2]: 5.30 to 6.00

CC1(C)CC(=O)C2=C(C1)NC1=C(CN=N1)[C@@]21CC[C@H](C(F)(F)F)C1 [US20250313563, Compound 952434]
pIC50 [1]: 6.00 to 7.00 | pIC50 [2]: 6.00 to 7.00

CC1(C)CC(=O)C2=C(C1)NC1=C(CN=N1)[C@]21CC[C@H](C(F)(F)F)C1 [US20250313563, Compound 952435]
pIC50 [1]: 6.00 to 7.00 | pIC50 [2]: > 7.00

CC1(C)CC(=O)C2=C(C1)NC1=C(CN=N1)[C@@]21CC[C@@H](C(F)(F)F)C1 [US20250313563, Compound 952436]
pIC50 [1]: > 7.00 and 5.30 to 6.00 | pIC50 [2]: > 7.00 and 5.30 to 6.00

CC1(C)CC(=O)C2=C(C1)NC1=C(CN=N1)[C@]21CC[C@@H](C(F)(F)F)C1 [US20250313563, Compound 952437]
pIC50 [1]: 6.00 to 7.00 | pIC50 [2]: 6.00 to 7.00

CC[C@]1(c2cccc(C(F)(F)F)c2)C2=CN=NC2NC2=C1C(=O)N(c1cn(C)c(C)n1)CC2 (stereo partly drawn) [US20250313563, Compound 952478]
pIC50 [1]: < 5.30 | pIC50 [2]: 5.30 to 6.00

CC[C@@]1(c2cccc(C(F)(F)F)c2)C2=CN=NC2NC2=C1C(=O)N(c1cn(C)c(C)n1)CC2 (stereo partly drawn) [US20250313563, Compound 952479]
pIC50 [1]: < 5.30 | pIC50 [2]: < 5.30

CCC1(c2cccc(-c3ccnc4c3CCC4)c2)C2=C(N=NC2)NC2=C1C(=O)C(C)(C)C2 (stereo not drawn) [US20250313563, Compound 952557]
pIC50 [1]: 6.00 to 7.00 | pIC50 [2]: > 7.00

CCc1cc(-c2cccc([C@]3(CC)C4=CN=NC4NC4=C3C(=O)NC(C)(C)C4)c2)n(C)n1 (stereo partly drawn) [US20250313563, Compound 952561]
pIC50 [1]: 6.00 to 7.00 | pIC50 [2]: 6.00 to 7.00

CC[C@@]1(c2cccc(-c3c(F)cncc3OC)c2)C2=C(N=NC2)NC2=C1C(=O)C(C)(C)C2 [US20250313563, Compound 952562]
pIC50 [1]: < 5.30 | pIC50 [2]: 5.30 to 6.00

CC[C@@]1(c2cccc(-c3cc(C)nc4c3cnn4C)c2)C2=CN=NC2NC2=C1C(=O)NC(C)(C)C2 (stereo partly drawn) [US20250313563, Compound 952563]
pIC50 [1]: < 5.30 | pIC50 [2]: 5.30 to 6.00

CC[C@]1(c2cccc(-c3c(F)cncc3OC)c2)C2=C(N=NC2)NC2=C1C(=O)C(C)(C)C2 [US20250313563, Compound 952564]
pIC50 [1]: > 7.00 and 5.30 to 6.00 | pIC50 [2]: > 7.00 and 6.00 to 7.00

CC[C@@]1(c2cccc(-c3cnn4ccncc34)c2)C2=CN=NC2NC2=C1C(=O)NC(C)(C)C2 (stereo partly drawn) [US20250313563, Compound 952565]
pIC50 [1]: 6.00 to 7.00 and < 5.30 | pIC50 [2]: > 7.00 and 5.30 to 6.00

CC[C@@]1(c2cccc(-c3cnn(-c4ccccn4)c3)c2)C2=CN=NC2NC2=C1C(=O)NC(C)(C)C2 (stereo partly drawn) [US20250313563, Compound 952566]
pIC50 [1]: 5.30 to 6.00 | pIC50 [2]: 6.00 to 7.00

CC[C@]1(c2cccc(C(F)(F)F)c2)C2=CN=NC2NC2=C1C(=O)N(c1cscn1)CC2 (stereo partly drawn) [US20250313563, Compound 952629]
pIC50 [1]: 6.00 to 7.00 | pIC50 [2]: > 7.00

CC[C@]1(c2cccc(C(F)(F)F)c2)C2=CN=NC2NC2=C1C(=O)N(c1ccsc1)CC2 (stereo partly drawn) [US20250313563, Compound 952630]
pIC50 [1]: 6.00 to 7.00 | pIC50 [2]: > 7.00

CC[C@@]1(c2cccc(C(F)(F)F)c2)C2=CN=NC2NC2=C1C(=O)N(c1ccsc1)CC2 (stereo partly drawn) [US20250313563, Compound 952636]
pIC50 [1]: < 5.30 | pIC50 [2]: < 5.30

CC[C@@]1(c2cccc(C(F)(F)F)c2)C2=CN=NC2NC2=C1C(=O)N(c1cscn1)CC2 (stereo partly drawn) [US20250313563, Compound 952638]
pIC50 [1]: < 5.30 | pIC50 [2]: < 5.30

CCC1(c2cccc(-c3ccnc4c3CCCC4)c2)C2=C(N=NC2)NC2=C1C(=O)C(C)(C)C2 (stereo not drawn) [US20250313563, Compound 952752]
pIC50 [1]: 6.00 to 7.00 | pIC50 [2]: > 7.00

CC[C@@]1(c2cccc(-c3ccnc(OC)c3Cl)c2)C2=CN=NC2NC2=C1C(=O)NC(C)(C)C2 (stereo partly drawn) [US20250313563, Compound 952754]
pIC50 [1]: 6.00 to 7.00 | pIC50 [2]: > 7.00

CC[C@@]1(c2cccc(-c3ccncc3C(F)(F)F)c2)C2=C(N=NC2)NC2=C1C(=O)C(C)(C)C2 [US20250313563, Compound 952757]
pIC50 [1]: < 5.30 | pIC50 [2]: 5.30 to 6.00

CC[C@@]1(c2cccc(-c3ccnc4cc(F)cnc34)c2)C2=CN=NC2NC2=C1C(=O)NC(C)(C)C2 (stereo partly drawn) [US20250313563, Compound 952758]
pIC50 [1]: 6.00 to 7.00 | pIC50 [2]: > 7.00

CC[C@]1(c2cccc(-c3ccncc3C(F)(F)F)c2)C2=C(N=NC2)NC2=C1C(=O)C(C)(C)C2 [US20250313563, Compound 952759]
pIC50 [1]: > 7.00 and 5.30 to 6.00 | pIC50 [2]: > 7.00 and 6.00 to 7.00

CC[C@@]1(c2cccc(-c3c(C)cnc4c(C)cccc34)c2)C2=CN=NC2NC2=C1C(=O)NC(C)(C)C2 (stereo partly drawn) [US20250313563, Compound 952760]
pIC50 [1]: < 5.30 | pIC50 [2]: < 5.30

CC[C@@]1(c2cccc(C3=C4CC=CC(C)=C4N=CC3)c2)C2=CN=NC2NC2=C1C(=O)NC(C)(C)C2 (stereo partly drawn) [US20250313563, Compound 952909]
pIC50 [1]: 6.00 to 7.00 | pIC50 [2]: > 7.00

CC[C@@]1(c2cccc(-c3ccnc4ccncc34)c2)C2=CN=NC2NC2=C1C(=O)NC(C)(C)C2 (stereo partly drawn) [US20250313563, Compound 952910]
pIC50 [1]: 6.00 to 7.00 and < 5.30 | pIC50 [2]: > 7.00 and 6.00 to 7.00

CC[C@@]1(c2cccc(-c3cnn(-c4ccncc4)c3)c2)C2=CN=NC2NC2=C1C(=O)NC(C)(C)C2 (stereo partly drawn) [US20250313563, Compound 952912]
pIC50 [1]: < 5.30 | pIC50 [2]: 6.00 to 7.00

CC[C@@]1(c2cccc(-c3ccnc4c3cnn4C)c2)C2=CN=NC2NC2=C1C(=O)NC(C)(C)C2 (stereo partly drawn) [US20250313563, Compound 952913]
pIC50 [1]: 6.00 to 7.00 | pIC50 [2]: > 7.00

CC[C@]1(c2ccccc2)C2=CN=NC2NC2=C1C(=O)CC(C)(C)[C@@H]2F (stereo partly drawn) [US20250313563, Compound 957196]
pIC50 [1]: < 5.30 | pIC50 [2]: < 5.30

CC[C@]1(c2ccccc2)C2=CN=NC2NC2=C1C(=O)CC(C)(C)[C@H]2F (stereo partly drawn) [US20250313563, Compound 957197]
pIC50 [1]: 5.30 to 6.00 and < 5.30 | pIC50 [2]: 6.00 to 7.00 and < 5.30

CC[C@@]1(c2ccccc2)C2=CN=NC2NC2=C1C(=O)CC(C)(C)[C@@H]2F (stereo partly drawn) [US20250313563, Compound 957199]
pIC50 [1]: < 5.30 | pIC50 [2]: < 5.30

CC[C@@]1(c2ccccc2)C2=CN=NC2NC2=C1C(=O)CC(C)(C)[C@H]2F (stereo partly drawn) [US20250313563, Compound 957200]
pIC50 [1]: 6.00 to 7.00 and < 5.30 | pIC50 [2]: 6.00 to 7.00 and < 5.30

CC[C@@]1(c2ccccc2)C2=CN=NC2NC2=C1C(=O)[C@@H](F)C(C)(C)C2 (stereo partly drawn) [US20250313563, Compound 957403]
pIC50 [1]: 5.30 to 6.00 | pIC50 [2]: 6.00 to 7.00

CC[C@@]1(c2ccccc2)C2=CN=NC2NC2=C1C(=O)[C@H](F)C(C)(C)C2 (stereo partly drawn) [US20250313563, Compound 957404]
pIC50 [1]: < 5.30 | pIC50 [2]: < 5.30

CC[C@]1(c2ccccc2)C2=CN=NC2NC2=C1C(=O)[C@@H](F)C(C)(C)C2 (stereo partly drawn) [US20250313563, Compound 957405]
pIC50 [1]: 5.30 to 6.00 | pIC50 [2]: 6.00 to 7.00

CC[C@]1(c2ccccc2)C2=CN=NC2NC2=C1C(=O)[C@H](F)C(C)(C)C2 (stereo partly drawn) [US20250313563, Compound 957406]
pIC50 [1]: < 5.30 | pIC50 [2]: < 5.30

CC[C@@]1(c2cccc(C(F)(F)F)c2)C2=C(CC(C)(C)NC2=O)NC2N=NC(F)=C21 (stereo partly drawn) [US20250313563, Compound 957497]
pIC50 [1]: < 5.30 | pIC50 [2]: < 5.30

CC[C@]1(c2cccc(-c3cnn(C)c3)c2)C2=CN=NC2NC2=C1C(=O)CC(C)(C)[C@@H]2F (stereo partly drawn) [US20250313563, Compound 957504]
pIC50 [1]: 5.30 to 6.00 | pIC50 [2]: 6.00 to 7.00

CC[C@]1(c2cccc(-c3cnn(C)c3)c2)C2=CN=NC2NC2=C1C(=O)CC(C)(C)[C@H]2F (stereo partly drawn) [US20250313563, Compound 957505]
pIC50 [1]: 5.30 to 6.00 and < 5.30 | pIC50 [2]: > 7.00 and 5.30 to 6.00

CC[C@]1(c2cccc(-c3ccnn3C)c2)C2=CN=NC2NC2=C1C(=O)CC(C)(C)[C@@H]2F (stereo partly drawn) [US20250313563, Compound 957506]
pIC50 [1]: 6.00 to 7.00 and < 5.30 | pIC50 [2]: > 7.00 and 6.00 to 7.00

CC[C@]1(c2cccc(-c3ccnn3C)c2)C2=CN=NC2NC2=C1C(=O)CC(C)(C)[C@H]2F (stereo partly drawn) [US20250313563, Compound 957507]
pIC50 [1]: > 7.00 and 5.30 to 6.00 | pIC50 [2]: > 7.00

CC[C@@]1(c2cccc(-c3ccnn3C)c2)C2=CN=NC2NC2=C1C(=O)CC(C)(C)[C@H]2F (stereo partly drawn) [US20250313563, Compound 957508]
pIC50 [1]: < 5.30 | pIC50 [2]: < 5.30

CC[C@@]1(c2cccc(-c3cnn(C)c3)c2)C2=CN=NC2NC2=C1C(=O)CC(C)(C)[C@@H]2F (stereo partly drawn) [US20250313563, Compound 957511]
pIC50 [1]: 6.00 to 7.00 and < 5.30 | pIC50 [2]: > 7.00 and 6.00 to 7.00

CC[C@]1(c2cccc(C(F)(F)F)c2)C2=C(CC(C)(C)NC2=O)NC2N=NC(F)=C21 (stereo partly drawn) [US20250313563, Compound 957518]
pIC50 [1]: 6.00 to 7.00 | pIC50 [2]: > 7.00

CC[C@]1(c2cccc(-c3ccncc3)c2)C2=CN=NC2NC2=C1C(=O)CC(C)(C)[C@@H]2F (stereo partly drawn) [US20250313563, Compound 959341]
pIC50 [1]: 6.00 to 7.00 | pIC50 [2]: 5.30 to 6.00

CC[C@@]1(c2cccc(-c3ccncc3)c2)C2=CN=NC2NC2=C1C(=O)CC(C)(C)[C@H]2F (stereo partly drawn) [US20250313563, Compound 959343]
pIC50 [1]: > 7.00 and 5.30 to 6.00 | pIC50 [2]: > 7.00 and 6.00 to 7.00

CC[C@@]1(c2cccc(-c3ccncc3)c2)C2=CN=NC2NC2=C1C(=O)CC(C)(C)[C@@H]2F (stereo partly drawn) [US20250313563, Compound 959344]
pIC50 [1]: < 5.30 | pIC50 [2]: < 5.30

CCC1(c2cccc(-c3cncn3C(C)C)c2)C2=CN=NC2NC2=C1C(=O)CC(C)(C)C2F (stereo not drawn) [US20250313563, Compound 963155]
pIC50 [1]: > 7.00 | pIC50 [2]: > 7.00
